According to ChEMBL document CHEMBL3259784, “Synthesis of novel 2-mercaptobenzoxazole based 1,2,3-triazoles as inhibitors of proinflammatory cytokines and suppressors of COX-2 gene expression” (Eur J Med Chem, 2014):
Active and inactive are the calls of the source. The calls are words filed in the database; no cut-off is given here.

What was measured:
[1] = system: Rattus norvegicus; test: Antiinflammatory activity in Albino Wistar rat assessed as inhibition of carrageenan-induced hind paw edema at 0.05 mmol/kg, po treated 1 hr before carrageenan challenge by plethysmometer analysis; assay type: functional, organism-based; conditions: TDE = time-dependent effect
[2] = target: Prostaglandin G/H synthase 1 (Homo sapiens, UniProt P23219); test: Inhibition of COX-1 (unknown origin)
[3] = target: T1, Prostaglandin G/H synthase 2 (Homo sapiens, UniProt P35354); test: Inhibition of COX-2 (unknown origin)
T1 sequence (P35354 whole entry): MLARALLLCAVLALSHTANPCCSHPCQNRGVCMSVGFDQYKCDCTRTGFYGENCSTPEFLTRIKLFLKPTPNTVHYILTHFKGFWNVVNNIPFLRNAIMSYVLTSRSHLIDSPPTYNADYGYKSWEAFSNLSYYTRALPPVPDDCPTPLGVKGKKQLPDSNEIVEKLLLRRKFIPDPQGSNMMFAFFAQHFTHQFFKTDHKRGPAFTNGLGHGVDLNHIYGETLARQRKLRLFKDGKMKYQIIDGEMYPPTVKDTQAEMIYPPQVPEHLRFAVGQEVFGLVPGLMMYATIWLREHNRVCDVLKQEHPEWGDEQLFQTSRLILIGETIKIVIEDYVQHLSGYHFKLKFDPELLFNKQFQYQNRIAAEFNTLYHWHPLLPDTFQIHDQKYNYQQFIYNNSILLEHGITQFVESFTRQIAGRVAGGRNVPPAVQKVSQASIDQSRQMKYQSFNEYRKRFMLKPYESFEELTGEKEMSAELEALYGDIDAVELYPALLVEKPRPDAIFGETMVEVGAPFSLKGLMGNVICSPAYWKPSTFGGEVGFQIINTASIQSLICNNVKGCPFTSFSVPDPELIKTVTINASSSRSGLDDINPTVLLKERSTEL

[4] = system: Rattus norvegicus; test: Antiinflammatory activity against carrageenan-induced hind paw Albino Wistar rat model assessed as reduction in nitric oxide level in hind paw at 0.05 mmol/kg, po treated 1 hr before carrageenan challenge by griess reagent based microplate reader analysis; assay type: functional, organism-based
[5] = system: Rattus norvegicus; test: Antiinflammatory activity against carrageenan-induced hind paw Albino Wistar rat model assessed as reduction in serum IL-1 beta level at 0.05 mmol/kg, po treated 1 hr before carrageenan challenge by ELISA; assay type: functional
[6] = system: Rattus norvegicus; test: Antiinflammatory activity against carrageenan-induced hind paw Albino Wistar rat model assessed as reduction in serum TNF-alpha level at 0.05 mmol/kg, po treated 1 hr before carrageenan challenge by ELISA; assay type: functional
[7] = system: Rattus norvegicus; test: Antiinflammatory activity against carrageenan-induced hind paw Albino Wistar rat model assessed as reduction in serum COX2 level at 0.05 mmol/kg, po treated 1 hr before carrageenan challenge by ELISA; assay type: functional
[8] = system: Mus musculus; test: Antinociceptive activity in mouse assessed as inhibition of acetic acid-induced writhing at 0.05 mmol/kg, po administered 30 mins prior to acetic acid challenge measured for 20 mins after acetic acid injection; assay type: functional
[9] = system: Rattus norvegicus; test: Ulcerogenicity in Albino Wistar rat assessed as gastric ulceration and rupture of gastric mucosal layer at 0.15 mmol/kg, po measured after 5 hrs; assay type: toxicity, organism-based, Gastric mucosa; conditions: in vivo
[10] = system: Rattus norvegicus; test: Antiinflammatory activity in Albino Wistar rat assessed as inhibition of carrageenan-induced hind paw edema at 0.05 mmol/kg, po treated 1 hr before carrageenan challenge measured 5 hrs post-carrageenan injection by plethysmometer analysis; assay type: functional
[11] = system: Rattus norvegicus; test: Antiinflammatory activity in Albino Wistar rat assessed as inhibition of carrageenan-induced hind paw edema at 0.05 mmol/kg, po treated 1 hr before carrageenan challenge measured 3 hrs post-carrageenan injection by plethysmometer analysis; assay type: functional
[12] = system: HeLa; test: Decrease in COX-2 gene expression in human HeLa cells at 10 uM after 24 hrs by real time PCR analysis relative to celecoxib; assay type: functional
[13] = system: Rattus norvegicus; test: Antiinflammatory activity against carrageenan-induced hind paw Albino Wistar rat model assessed as reduction in nitric oxide level in hind paw at 0.05 mmol/kg, po treated 1 hr before carrageenan challenge measured per mg of wet tissue by griess reagent based microplate reader analysis; assay type: functional
[14] = system: Rattus norvegicus; test: Antioxidant activity in carrageenan-induced hind paw Albino Wistar rat model assessed as increase in GSH level in hind paw joint at 0.05 mmol/kg, po treated 1 hr before carrageenan challenge measured per gm of tissue by plate reader analysis (reference value: 0.58 +/-0.02 ug); assay type: functional
[15] = system: Rattus norvegicus; test: Antioxidant activity in carrageenan-induced hind paw Albino Wistar rat model assessed as inhibition of lipid peroxidation by measuring TBARS level in hind paw at 0.05 mmol/kg, po treated 1 hr before carrageenan challenge by microplate reader analysis; assay type: functional

Sequence of Prostaglandin G/H synthase 1 (P23219 whole entry): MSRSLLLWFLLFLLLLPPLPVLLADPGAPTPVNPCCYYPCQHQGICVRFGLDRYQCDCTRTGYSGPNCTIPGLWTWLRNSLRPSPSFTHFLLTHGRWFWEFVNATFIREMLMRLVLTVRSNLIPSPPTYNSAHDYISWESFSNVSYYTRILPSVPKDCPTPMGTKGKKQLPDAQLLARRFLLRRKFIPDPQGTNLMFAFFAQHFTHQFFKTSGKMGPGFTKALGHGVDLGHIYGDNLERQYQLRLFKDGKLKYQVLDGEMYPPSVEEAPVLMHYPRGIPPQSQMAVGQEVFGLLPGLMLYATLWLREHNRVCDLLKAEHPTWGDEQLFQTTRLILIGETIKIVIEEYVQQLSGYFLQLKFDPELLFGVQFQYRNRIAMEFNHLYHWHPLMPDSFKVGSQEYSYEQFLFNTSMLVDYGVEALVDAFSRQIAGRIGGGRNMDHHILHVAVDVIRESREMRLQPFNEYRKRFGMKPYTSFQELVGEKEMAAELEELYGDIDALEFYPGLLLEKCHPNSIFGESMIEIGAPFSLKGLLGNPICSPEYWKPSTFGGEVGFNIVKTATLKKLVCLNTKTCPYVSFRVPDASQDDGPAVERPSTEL

| SMILES | IC50 [2] [µM] | IC50 [3] [µM] | inhibition [1] | inhibition [4] | also measured |
| --- | --- | --- | --- | --- | --- |
| Cc1ccc(-n2cc(CSc3nc4ccccc4o3)nn2)cc1C | 140 | 4.35 | tde | Active | – |
| CCc1ccc(-n2cc(CSc3nc4ccccc4o3)nn2)cc1 | 246 | 3.8 | tde | Active | inhibition in vivo at 50 µmol/kg [10]: 61.1%; inhibition in vivo at 50 µmol/kg [11]: 66.7%; inhibition [5]: Active; inhibition [6]: Active; inhibition [7]: Active; fold change (FC) [12]: 0.94; Activity [13]: 5.1 µmol; Activity [14]: 0.84 µg; Activity [9]: Non-toxic |
| CCOc1ccc(-n2cc(CSc3nc4ccccc4o3)nn2)cc1 | 163 | 3.5 | tde | Active | Activity [5]: 2.66 pg/mL; inhibition [6]: Active; inhibition [7]: Active; Activity [14]: 0.84 µg; Activity [15]: 5.1 nmol; Activity [9]: Non-toxic |
| Cc1ccc(-c2cc(C(F)(F)F)nn2-c2ccc(S(N)(=O)=O)cc2)cc1 [CELECOXIB] | – | – | – | Active | inhibition in vivo at 50 µmol/kg [10]: 65.5%; inhibition in vivo at 50 µmol/kg [11]: 72.2%; Activity [5]: 2.9 pg/mL; Activity [6]: 3.35 pg/mL; Activity [7]: 7.9 nmol/min/mL; Activity [13]: 5.5 µmol; Activity [14]: 0.81 µg; Activity [15]: 6.3 nmol; inhibition in vivo at 50 µmol/kg [8]: 70.9% |
| Cc1ccccc1-n1cc(CSc2nc3ccccc3o2)nn1 | 132 | 4.68 | tde | Active | – |
| Brc1ccc(-n2cc(CSc3nc4ccccc4o3)nn2)cc1 | 186 | 2.8 | tde | Active | inhibition [5]: Active; inhibition [6]: Active; inhibition [7]: Active; fold change (FC) [12]: 0.79; Activity [9]: Non-toxic |
| Fc1ccc(-n2cc(CSc3nc4ccccc4o3)nn2)cc1 | 192 | 5.21 | tde | Active | – |
| c1ccc(-n2cc(CSc3nc4ccccc4o3)nn2)cc1 | 107 | 6.42 | tde | Active | – |
| O=[N+]([O-])c1ccc(-n2cc(CSc3nc4ccccc4o3)nn2)cc1 | 115 | 9.87 | tde | Active | – |
| CC(C)(C)c1ccc(-n2cc(CSc3nc4ccccc4o3)nn2)cc1 | 154 | 3.85 | tde | Active | – |

Now from value to compound, other results behind:

| IC50 [2] [µM] | IC50 [3] [µM] | SMILES | inhibition [1] | inhibition [4] | also measured |
| --- | --- | --- | --- | --- | --- |
| 89.4 | 2.3 | COc1ccc(-n2cc(CSc3nc4ccccc4o3)nn2)cc1 | tde | Active | inhibition [5]: Active; Activity [6]: 3.1 pg/mL; Activity [7]: 6.54 nmol/min/mL; inhibition in vivo at 50 µmol/kg [8]: 55.5%; Activity [9]: Non-toxic |
| 104 | 9.58 | O=[N+]([O-])c1cccc(-n2cc(CSc3nc4ccccc4o3)nn2)c1 | tde | Active | – |
| 44.4 | 3.53 | Clc1ccccc1-n1cc(CSc2nc3ccccc3o2)nn1 | tde | Active | – |
| 96.6 | 3.98 | c1cncc(-n2cc(CSc3nc4ccccc4o3)nn2)c1 | tde | Active | – |
| 88.3 | 4.63 | Clc1cccc(-n2cc(CSc3nc4ccccc4o3)nn2)c1 | tde | Active | – |
| 80.8 | 1.9 | Clc1ccc(-n2cc(CSc3nc4ccccc4o3)nn2)cc1 | tde | Active | inhibition in vivo at 50 µmol/kg [10]: 55.5%; inhibition in vivo at 50 µmol/kg [11]: 68.9%; inhibition [5]: Active; inhibition [6]: Active; inhibition [7]: Active; inhibition in vivo at 50 µmol/kg [8]: 51.5%; Activity [9]: Non-toxic |
| 38.4 | 2.75 | Brc1ccccc1-n1cc(CSc2nc3ccccc3o2)nn1 | tde | Active | – |
| 24.2 | 2.4 | Fc1ccccc1-n1cc(CSc2nc3ccccc3o2)nn1 | tde | Active | – |
| 103 | 5.03 | Clc1ncccc1-n1cc(CSc2nc3ccccc3o2)nn1 | tde | Active | – |
